Assay results published in ChEMBL document CHEMBL1201862, “PubChem BioAssay data set” (2004).
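Five concentrations, 48 hours, 96-well plates. GI50 = concentration required for 50% inhibition of growth.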 Active and inactive are the calls of the source. No stated cut-off is given here; in the data, active = GI50 up to about 1.1 µM and inactive = higher.

Experiments:
Assay in all cases: NCI-60 cell line screen, 48 h
[1] = tested on: SNB-19
[2] = tested on: HL-60
[3] = tested on: Malme-3M
[4] = tested on: NCI-H460
[5] = tested on: IGROV-1
[6] = tested on: BT-549
[7] = tested on: SF-295
[8] = tested on: T47D
[9] = tested on: HT-29
[10] = tested on: UACC-257
[11] = tested on: EKVX
[12] = tested on: SF-539
[13] = tested on: Hs-578T
[14] = tested on: NCI-H23
[15] = tested on: SW-620
[16] = tested on: KM12
[17] = tested on: OVCAR-8
[18] = tested on: DU-145
[19] = tested on: OVCAR-4
[20] = tested on: NCI-H226
[21] = tested on: NCI/ADR-RES
[22] = tested on: UO-31
[23] = tested on: K562
[24] = tested on: OVCAR-3
[25] = tested on: CCRF-CEM
[26] = tested on: MOLT-4
[27] = tested on: OVCAR-5
[28] = tested on: SK-MEL-28
[29] = tested on: UACC-62
[30] = tested on: LOX IMVI
[31] = tested on: SK-OV-3
[32] = tested on: MCF7
[33] = tested on: ACHN
[34] = tested on: HCT-15
[35] = tested on: HOP-92
[36] = tested on: M14
[37] = tested on: NCI-H522
[38] = tested on: U-251
[39] = tested on: SK-MEL-2
[40] = tested on: A549
[41] = tested on: MDA-MB-435
[42] = tested on: HCT-116
[43] = tested on: RPMI-8226
[44] = tested on: TK-10
[45] = tested on: A498
[46] = tested on: SF-268
[47] = tested on: HCC 2998
[48] = tested on: MDA-MB-231
[49] = tested on: SNB-75
[50] = tested on: CAKI-1
[51] = tested on: 786-0
[52] = tested on: COLO 205
[53] = tested on: SN12C
[54] = tested on: SK-MEL-5
[55] = tested on: PC-3

O=C(/C=C/c1c(O)nc2ccccc2c1O)CC(=O)C(=O)Nc1cccc(O)c1
GI50 [1]: > 100 µM (inactive)
GI50 [2]: > 100 µM (inactive)
GI50 [3]: > 100 µM (inactive)
GI50 [4]: > 100 µM (inactive)
GI50 [5]: > 100 µM (inactive)
GI50 [6]: > 100 µM (inactive)
GI50 [7]: > 100 µM (inactive)
GI50 [8]: > 100 µM (inactive)
GI50 [9]: > 100 µM (inactive)
GI50 [10]: > 100 µM (inactive)
GI50 [11]: > 100 µM (inactive)
GI50 [12]: > 100 µM (inactive)
GI50 [13]: > 100 µM (inactive)
GI50 [14]: > 100 µM (inactive)
GI50 [15]: > 100 µM (inactive)
GI50 [16]: > 100 µM (inactive)
GI50 [17]: > 100 µM (inactive)
GI50 [18]: > 100 µM (inactive)
GI50 [19]: > 100 µM (inactive)
GI50 [20]: > 100 µM (inactive)
GI50 [21]: > 100 µM (inactive)
GI50 [22]: > 100 µM (inactive)
GI50 [23]: > 100 µM (inactive)
GI50 [24]: > 100 µM (inactive)
GI50 [25]: 21.1 µM (inactive)
GI50 [26]: > 100 µM (inactive)
GI50 [27]: > 100 µM (inactive)
GI50 [28]: > 100 µM (inactive)
GI50 [29]: > 100 µM (inactive)
GI50 [30]: > 100 µM (inactive)
GI50 [31]: > 100 µM (inactive)
GI50 [32]: > 100 µM (inactive)
GI50 [33]: > 100 µM (inactive)
GI50 [34]: > 100 µM
GI50 [35]: > 100 µM (inactive)
GI50 [36]: > 100 µM (inactive)
GI50 [37]: > 100 µM (inactive)
GI50 [38]: > 100 µM (inactive)
GI50 [39]: > 100 µM (inactive)
GI50 [40]: > 100 µM (inactive)
GI50 [41]: > 100 µM (inactive)
GI50 [42]: > 100 µM (inactive)
GI50 [43]: > 100 µM (inactive)
GI50 [44]: > 100 µM (inactive)
GI50 [45]: > 100 µM (inactive)
GI50 [46]: > 100 µM (inactive)
GI50 [47]: > 100 µM (inactive)
GI50 [48]: > 100 µM (inactive)
GI50 [49]: > 100 µM (inactive)
GI50 [50]: > 100 µM (inactive)
GI50 [51]: > 100 µM (inactive)
GI50 [52]: > 100 µM (inactive)
GI50 [53]: > 100 µM (inactive)
GI50 [54]: > 100 µM (inactive)
GI50 [55]: > 100 µM (inactive)
